Where two headings read alike, the source gives them in different places.

Broadly, the IC50 is the concentration that gives 50% inhibition.

Holding throughout (type): cell-based, human
Assay [1] deals with p-ERK in AGS cells (KRAS G12D mutation). The experiment in a line: Cell p-ERK assay (HTRF, Advance ERK phospho-T202/Y204 kit). The following applies: AGS cells, 3 hours incubation with compound, HTRF, read-out: AGS p-ERK IC50. An outline of the steps: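 Phospho-ERK (T202/Y204) measured by HTRF in lysates of human gastric AGS cells carrying KRAS G12D, after 3 h compound exposure at 0.1% DMSO over a 3.16-fold series. Percent inhibition relative to DMSO control and lysis-only blank; four-parameter curve fitting gave IC50.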

The test system of a further assay is AGS cells (KRAS G12D). The experiment in a line: Cell proliferation inhibition assay, 3D, CellTiter-Glo 3D, AGS. The following applies: AGS 3D sphere model, 5 days incubation. In short, it runs like this: (§1)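 Spheroids (800 AsPC-1 or 400 AGS cells/well; RPMI-1640 or F-12K with 10% FBS) formed overnight, then were dosed on day 2 with a 3.16-fold series at 0.1% DMSO. After 5 days, viability was read by CellTiter-Glo 3D luminescence, and IC50 came from four-parameter fits of inhibition versus DMSO control and medium blank.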
A general note: ATP-based viability assays read luminescence as a measure of living cells.

Assay [2] has as its system AsPC-1 cells (KRAS G12D mutation). The experiment in a line: Cell proliferation inhibition assay, 3D, CellTiter-Glo 3D, AsPC-1. Particulars: AsPC-1 3D sphere model, 5 days incubation. In short, it runs like this:
as §1

For `C#Cc1c(F)ccc2cccc(-c3nc4c5c(nc(OCC67CC(=C)CN6CC(F)C7)nc5c3F)N3C[C@H]5CC[C@H](N5)[C@H]3[C@H](C)O4)c12` (stereo partly drawn) [Example Z607, (5S,5aS,6S,9R)-2-(8-ethynyl-7-fluoronaphthalen-1-yl)-1-fluoro-12-((2-fluoro-6-methylenetetrahydro-1H-pyrrolizin-7a (5H)-yl)methoxy)-5-methyl-5a,6,7,8,9,10-hexahydro-5H-4-oxa-3,10a,11,13,14-pentaaza-6,9-methanonaphtho[1,8-ab]heptalene], the IC50 in assay [1] (Homo sapiens) is 24.4 nM; with AGS cells (KRAS G12D) (Homo sapiens, 120 h) it was 81.2 nM; in assay [2] (Homo sapiens, ASPC1, 120 h) it was 101 nM.
On to `C#Cc1cccc2cc(N)cc(-c3nc4c5c(nc(OCC6(CN(C)CC(F)(F)F)CC6)nc5c3F)N3C[C@H]5CC[C@H](N5)[C@H]3[C@H](C)O4)c12` [Example Z714, 5-Ethynyl-4-((5S,5aS,6S,9R)-1-Fluoro-5-Methyl-12-((1-((Methyl(2,2,2-Trifluoroethyl)Amino)Methyl)Cyclopropyl)Methoxy)-5a,6,7,8,9,10-Hexahydro-5H-4-Oxa-3,10a,11,13,14-Pentaaza-6,9-Methanonaphtho[1,8-Ab]Heptalen-2-Yl) Naphthalen-2-Amine], for which the IC50 in assay [1] (Homo sapiens) was 622 nM; in the assay on AGS cells (KRAS G12D) (Homo sapiens, 120 h), 673 nM; in assay [2] (Homo sapiens, ASPC1, 120 h), 815 nM.
Take `C#Cc1cccc2c(F)c(N)cc(-c3nc4c5c(nc(OCC67C[C@@H](F)CN6CCC7=C)nc5c3F)N3C[C@H]5CC[C@H](N5)[C@H]3[C@H](C)O4)c12` (stereo partly drawn) [Example Z728, 5-ethynyl-1-fluoro-4-((5S,5aS,6S,9R)-1-fluoro-12-(((6R)-6-fluoro-1-methylenetetrahydro-1H-pyrrolizin-7a (5H)-yl)methoxy)-5-methyl-5a,6,7,8,9,10-hexahydro-5H-4-oxa-3,10a, 11, 13,14-pentaaza-6,9-methanonaphtho[1,8-ab]heptalene-2-yl) naphthalen-2-amine]: the IC50 in assay [1] (Homo sapiens) turned out to be 0.95 nM; with AGS cells (KRAS G12D) (Homo sapiens, 120 h), 3.75 nM; in assay [2] (Homo sapiens, ASPC1, 120 h) it was 5.41 nM.
For `C#Cc1cc(F)cc2cccc(-c3nc4c5c(nc(OCC67CC(=C)CN6CC(=C)C7)nc5c3F)N3C[C@H]5CC[C@H](N5)[C@H]3[C@H](C)O4)c12` [Example Z550, (5S,5aS,6S,9R)-12-((2,6-dimethylenetetrahydro-1H-pyrrolizin-7a (5H)-yl)methoxy)-2-(8-ethynyl-6-fluoronaphthalen-1-yl)-1-fluoro-5-methyl-5a,6,7,8,9,10-hexahydro-5H-4-oxa-3,10a, 11,13,14-pentaaza-6,9-methanonaphtho[1,8-ab]heptalene], in that order: 91.2 nM, 109 nM and 394 nM.
For `C#Cc1c(F)ccc2cccc(-c3nc4c5c(nc(OCC67CC(=C)CN6CCC7CO)nc5c3F)N3C[C@H]5CC[C@H](N5)[C@H]3[C@H](C)O4)c12` (stereo partly drawn) [Example Z683, (7a-((((5S,5aS,6S,9R)-2-(8-ethynyl-7-fluoronaphthalen-1-yl)-1-fluoro-5-methyl-5a,6,7,8,9,10-hexahydro-5H-4-oxa-3,10a,11,13,14-pentaaza-6,9-methanonaphtho[1,8-ab]heptalen-12-yl)oxy)methyl)-6-methylenehexahydro-1H-pyrrolizin-1-yl)methanol], in that order: 5.84 nM, 22.7 nM and 79 nM.
Take `C[C@@H]1Oc2nc(-c3cc(N)cc4ccc(F)c(F)c34)c(F)c3nc(OCC4(CN5CCOCC5)CC4)nc(c23)N2C[C@H]3CC[C@H](N3)[C@@H]12` [Example Z719, 5,6-difluoro-4-((5S,5aS,6S,9R)-1-fluoro-S-methyl-12-((1-(morpholinomethyl)cyclopropyl)methoxy)-5a,6,7,8,9,10-hexahydro-5H-4-oxa-3,10a, 11,13,14-pentaaza-6,9-methanonaphtho[1,8-ab]heptalene-2-yl) naphthalen-2-amine]: the concentration for half-maximal inhibition (IC50) in assay [1] stood at 1.16 nM; in the assay on AGS cells (KRAS G12D), 1.03 nM; in assay [2], 3 nM.
With `C#Cc1c(F)ccc2cccc(-c3nc4c5c(nc(OC[C@]67CCCN6CCC7=C)nc5c3F)N3C[C@H]5CC[C@H](N5)[C@H]3[C@H](C)O4)c12` (single isomer, unassigned) [Example Z638], the IC50 in assay [1] (Homo sapiens) is 7.79 nM; in the assay with AGS cells (KRAS G12D) (Homo sapiens, 120 h) it was 19.7 nM; in assay [2] (Homo sapiens, ASPC1, 120 h), 32 nM.
Take `C#Cc1cccc2cc(N)cc(-c3nc4c5c(nc(OC[C@@H]6CC(F)(F)CN6C)nc5c3F)N3C[C@H]5CC[C@H](N5)[C@H]3[C@H](C)O4)c12` [Example Z724, 4-((5S,5aS,6S,9R)-12-(((S)-4,4-Difluoro-1-Methylpyrrolidin-2-Yl)Methoxy)-1-Fluoro-5-Methyl-5a,6,7,8,9,10-Hexahydro-5H-4-Oxa-3,10a,11,13,14-Pentaaza-6,9-Methanonaphtho[1,8-Ab]Heptalene-2-Yl)-5-Ethynylnaphthalen-2-Amine]: the IC50 in assay [1] (Homo sapiens) was 45.3 nM; in the assay on AGS cells (KRAS G12D) (Homo sapiens, 120 h) it was 92 nM; in assay [2] (Homo sapiens, ASPC1, 120 h) it was 196 nM.
For the compound `C#Cc1c(F)ccc2cccc(-c3nc4c5c(nc(OC[C@]67C[C@@H](F)CN6CCC7=C)nc5c3F)N3C[C@H]5CC[C@H](N5)[C@H]3[C@H](C)O4)c12` (single isomer, unassigned) [Example Z689], the IC50 in assay [1] (Homo sapiens) was 6.61 nM; with AGS cells (KRAS G12D) (Homo sapiens, 120 h), 19.3 nM; in assay [2] (Homo sapiens, ASPC1, 120 h) it was 17.4 nM.
For `C#Cc1cccc2cccc(-c3nc4c5c(nc(OC[C@@]67CCCN6C[C@H](F)C7)nc5c3F)N3C[C@H]5CC[C@H](N5)[C@H]3[C@H](CC)O4)c12` [Example Z387, (5S,5aS,6S,9R)-5-ethyl-2-(8-ethynylnaphthalen-1-yl)-1-fluoro-12-(((2R,7aS)-2-fluorotetrahydro-1H-pyrrolizin-7a (5H)-yl)methoxy)-5a,6,7,8,9,10-hexahydro-5H-4-oxa-3,10a, 11,13,14-pentaaza-6,9-methanonaphtho[1,8-ab]heptalene], in that order: 50.2 nM, 73.3 nM and 202 nM.
For `C#Cc1c(F)ccc2cccc(-c3nc4c5c(nc(OCC67CCCN6[C@@H]6C[C@@H]6C7)nc5c3F)N3C[C@H]5CC[C@H](N5)[C@H]3[C@H](C)O4)c12` (stereo partly drawn) [Example Z624, (5S,5aS,6S,9R)-2-(8-ethynyl-7-fluoronaphthalen-1-yl)-1-fluoro-12-(((1aR,6aR)-hexahydrocyclopropa[b]pyrrolizin-5a (3H)-yl)methoxy)-5-methyl-5a,6,7,8,9,10-hexahydro-5H-4-oxa-3,10a, 11, 13, 14-pentaaza-6,9-methanonaphtho[1,8-ab]heptalene], in that order: 47.3 nM, 88.2 nM and 194 nM.
For the compound `C#Cc1cccc2cc(N)cc(-c3nc4c5c(nc(OCC67CC(=C)CN6CC(F)(F)C7)nc5c3F)N3C[C@H]5CC[C@H](N5)[C@H]3[C@H](C)O4)c12` (stereo partly drawn) [Example Z711, 4-((5S,5aS,6S,9R)-12-((2,2-difluoro-6-methylenetetrahydro-1H-pyrrolizin-7a (5H)-yl)methoxy)-1-fluoro-5-methyl-5a,6,7,8,9,10-hexahydro-5H-4-oxa-3,10a,11,13,14-pentaaza-6,9-methanonaphtho[1,8-ab]heptalen-2-yl)-5-ethynylnaphthalen-2-amine], the IC50 amounted to 13.3 nM in assay [1] (Homo sapiens); 54.2 nM in the assay on AGS cells (KRAS G12D) (Homo sapiens, 120 h); 85.6 nM in assay [2] (Homo sapiens, ASPC1, 120 h).
